Measurements reported in US20250011311A1, “AMIDO HETEROAROMATIC COMPOUNDS” (AstraZeneca AB, priority 2022, published 2025).

Legend:
[1] = target: over expressed HSD17β9 in HEK293S cells (Homo sapiens (Human), UniProt Q92781); experiment: In Vitro 17bHSD9 Cell Assay; type: cell-based; details: HEK293S cells over expressing HSD17β9; retinol to retinal conversion, 18 h, LC-MS/MS; read-out: 17bHSD9 Cell assay IC50
Procedure: In Vitro 17bHSD9 Cell Assay
Inhibition of 17bHSD9 was measured in a cell-based assay with over expressed HSD17β9 in HEK293S cells, measuring retinol to retinal conversion by LCMS/MS.
Cells were plated in 384 well plates (GREINER CELL culture plate 384w black/clear Poly-D-Lysine) at 10 K c/w in 30 μl of culture media (DMEM with GLUTAMAX plus 10% FBS). […] After 18 h of cell culturing for 20 μl of media was transferred using BRAVO dispensing robot (AGILENT) to a GREINER PP 384 well plate (781280) and 40 μl of 50% acetonitrile was added. Samples were analyzed using LC-MS/MS.
SCIEX LC-MS/MS system: Sample was injected with CTC analytical injector, SHIMATZU LC pumps LC20 and analysed on the SCIEX API 5000 LCMSMS system with the following settings. Samples were chromatographed on a WATERS, symmetry, C8, 3.5 μm, 2.1×50 mm) column at constant flow rate of 0.5 mL/min. The mobile phases consists of A (water with 0.2% formic acid) and B (acetonitrile with 0.2% formic acid). The LC gradient profile is as follows: 50% B during 0 to 0.1 min, a linear increase to 100% B during 0.1 to 0.8 min, hold at 100% B during 0.8 to 1.5 min then back to 50% B from 1.5 to 1.6 min and hold during run time. The run time was 2 min with retention times of approximately 1.54 and 1.62 min for Retinol and Retinal, respectively. Detection was performed on a API 5000 LC/MS/MS system with a triple quadrupole mass spectrometer, a TURBO V ion source, in multiple reaction monitoring (MRM) mode at positive polarity with ESI probe. The MRM pairs were m/z 269.3 to m/z 93.0 and m/z 285.2 to 161.0. for Retinol and Retinal, respectively. The dwell times were 100 ms for each transition and a depolarization and collision energy of 50 and 25, respectively. Data from MS signals was using area under curve (AUC). Ratio=Retinal/(Retinal+Retinol).
(§1) […] […] was used for curve fitting and calculation of IC50 values.
(§2) Compound effect was calculated with the formula below;
(§3) where X represents the effect in the presence of test compound, min is DMSO and max is the maximum inhibition of enzyme using a known inhibitor as control.

[2] = target: recombinant 17bHSD13 (N2-K300) (Homo sapiens (Human), UniProt Q7Z5P4); experiment: In Vitro 17bHSD13 Enzyme Assay; type: biochemical; details: 80 nM 17bHSD13, 0.5 mM NAD, 20 μM Estradiol, 2.5 h; estradiol to estrone by LC-MS/MS
Chain of recombinant 17bHSD13 (N2-K300) (Q7Z5P4 2-300): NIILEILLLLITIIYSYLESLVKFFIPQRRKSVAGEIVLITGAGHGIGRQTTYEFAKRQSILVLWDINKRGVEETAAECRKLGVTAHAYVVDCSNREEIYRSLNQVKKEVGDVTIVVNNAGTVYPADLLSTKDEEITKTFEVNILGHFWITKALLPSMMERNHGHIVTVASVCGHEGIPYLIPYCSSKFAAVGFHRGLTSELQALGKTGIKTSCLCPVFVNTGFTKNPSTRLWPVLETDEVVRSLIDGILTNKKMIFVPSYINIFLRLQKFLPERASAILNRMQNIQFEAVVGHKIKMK
Procedure: In Vitro 17bHSD13 Enzyme Assay
The enzyme reaction was initiated by addition, using CERTUS-FLEX dispenser (GYGER), of 20 μl of substrate solution containing NAD (SIGMA, N1511) and Estradiol (SIGMA, E8875). […] Final assay conditions were 80 nM of 17bHSD13, 0.5 mM of NAD, 20 μM Estradiol and various concentrations of compound in buffer (5 mM EDTA (TEKNOVA E0306), 0.01% DDM (AFFYMETRIX D310) in 50 mM Tris-Cl, pH 7.4).
(§4) SCIEX LC-MS/MS system: Sample was injected with CTC analytical injector, SHIMATZU LC pumps LC20 and analyzed on the SCIEX API 5000 LCMSMS system with the following settings. […] The mobile phases consist of A (water with 0.2% formic acid) and B (acetonitrile with 0.2% formic acid). The LC gradient profile is as follows: 50% B during 0 to 0.5 min, a linear increase to 100% B during 0.5 to 1 min, hold at 100% B during 1 to 1.6 min then back to 50% B from 1.6 to 2 min. […] Detection was performed on a API 5000 LC/MS/MS system with a triple quadrupole mass spectrometer, a TURBO V ion source, in multiple reaction monitoring (MRM) mode at positive polarity with APCI probe. […] The dwell times were 100 ms for each transition and a depolarization and collision energy of 100 and 40, respectively. Data from MS signals was using area under curve (AUC). Ratio=Estrone/(Estrone+Estradiol)
as §1, §2, §3

[3] = target: over expressed HSD17β13 in HEK293S cells (Homo sapiens (Human), UniProt Q7Z5P4); experiment: In Vitro 17bHSD13 Cell Assay; type: cell-based; details: HEK293S cells over expressing HSD17β13; estradiol to estrone conversion, 18 h, LC-MS/MS; read-out: 17bHSD1713 Cell assay IC50
Chain of over expressed HSD17β13 in HEK293S cells (Q7Z5P4 20-300): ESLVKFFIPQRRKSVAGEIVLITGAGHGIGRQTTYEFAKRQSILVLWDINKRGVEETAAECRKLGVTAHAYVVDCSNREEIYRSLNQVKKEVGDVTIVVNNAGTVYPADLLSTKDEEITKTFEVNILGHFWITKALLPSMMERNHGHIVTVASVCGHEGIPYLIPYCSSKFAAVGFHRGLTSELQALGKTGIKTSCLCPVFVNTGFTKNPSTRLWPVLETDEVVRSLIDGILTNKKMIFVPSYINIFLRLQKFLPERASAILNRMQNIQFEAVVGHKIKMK
Procedure: In Vitro 17bHSD13 Cell Assay
Inhibition of 17bHSD13 was measured in a cell-based assay with over expressed HSD17β13 in HEK293S cells, measuring estradiol to estrone conversion by LCMS/MS.
Samples were analyzed using LC-MS/MS.
as §4, with “analysed” for “analyzed”
as §1, §2, §3

Chain of over expressed HSD17β9 in HEK293S cells (Q92781 whole entry): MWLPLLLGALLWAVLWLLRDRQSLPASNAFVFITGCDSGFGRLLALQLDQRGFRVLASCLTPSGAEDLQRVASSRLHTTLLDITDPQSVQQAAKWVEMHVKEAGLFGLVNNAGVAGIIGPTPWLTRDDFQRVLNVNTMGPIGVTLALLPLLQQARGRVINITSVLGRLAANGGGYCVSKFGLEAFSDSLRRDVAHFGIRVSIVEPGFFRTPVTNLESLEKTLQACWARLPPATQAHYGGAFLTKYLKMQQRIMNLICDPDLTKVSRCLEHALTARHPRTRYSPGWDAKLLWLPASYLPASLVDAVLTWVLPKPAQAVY

| Structure (SMILES) | IC50 [1] | IC50 [2] | IC50 [3] |
| --- | --- | --- | --- |
| Cc1ccc2[nH]c(CN(C)C(=O)c3noc(-c4cc(F)c(F)c(O)c4F)n3)nc2c1 [Example 73, N-Methyl-N-((5-methyl-1H-benzo[d]imidazol-2-yl)methyl)-5-(2,4,5-trifluoro-3-hydroxyphenyl)-1,2,4-oxadiazole-3-carboxamide] | > 50 µM | 0.088 µM | 21.6 µM |
| CN(C(=O)c1noc(-c2cc(F)c(F)c(O)c2F)n1)c1cccc(C#N)c1 [Example 63, N-(3-Cyanophenyl)-N-methyl-5-(2,4,5-trifluoro-3-hydroxyphenyl)-1,2,4-oxadiazole-3-carboxamide] | – | – | 1.19 µM |
| CN(C(=O)c1noc(-c2ccc(F)c(O)c2)n1)c1nnnn1-c1ccccc1 [Example 92, 5-(4-Fluoro-3-hydroxyphenyl)-N-methyl-N-(1-phenyl-1H-tetrazol-5-yl)-1,2,4-oxadiazole-3-carboxamide] | > 50 µM | 0.041 µM | 1.54 µM |
| COc1cccc(N2CCN(C(=O)c3noc(-c4cc(C(F)(F)F)[nH]c(=O)c4)n3)CC2)c1 [Example 10, 4-(3-(4-(3-Methoxyphenyl)piperazine-1-carbonyl)-1,2,4-oxadiazol-5-yl)-6-(trifluoromethyl)pyridin-2(1H)-one] | > 50 µM | 0.474 µM | 4.14 µM |
| O=C(NCc1ccnn1C1CCCCC1)c1cnc(-c2ccc(F)c(O)c2)o1 [Example 100, N-((1-Cyclohexyl-1H-pyrazol-5-yl)methyl)-2-(4-fluoro-3-hydroxyphenyl)oxazole-5-carboxamide] | – | 5.34 µM | 18.1 µM |
| CN(C)C(=O)C1CCCN1C(=O)c1ccc(-c2cc(F)c(F)c(O)c2F)s1 (stereo not shown) [Example 105, N,N-Dimethyl-1-(5-(2,4,5-trifluoro-3-hydroxyphenyl)thiophene-2-carbonyl)pyrrolidine-2-carboxamide] | – | 3.76 µM | 1.26 µM |
| Cc1cccnc1CN(C(=O)c1noc(-c2cc(F)c(F)c(O)c2F)n1)C(C)C [Example 75, N-Isopropyl-N-((3-methylpyridin-2-yl)methyl)-5-(2,4,5-trifluoro-3-hydroxyphenyl)-1,2,4-oxadiazole-3-carboxamide] | – | 0.268 µM | 5.6 µM |
| Cc1cc2nc(CN(C)C(=O)c3noc(-c4cc(F)c(F)c(O)c4F)n3)[nH]c2cc1C [Example 71, N-((5,6-Dimethyl-1H-benzo[d]imidazol-2-yl)methyl)-N-methyl-5-(2,4,5-trifluoro-3-hydroxyphenyl)-1,2,4-oxadiazole-3-carboxamide] | – | 0.068 µM | 28.4 µM |
| N#Cc1c(C(=O)N2CCC(n3cc(-c4ccc(F)cc4)[nH]c3=O)CC2)noc1-c1cc(F)c(F)c(O)c1F [Example 24, 3-(4-(4-(4-Fluorophenyl)-2-oxo-2,3-dihydro-1H-imidazol-1-yl)piperidine-1-carbonyl)-5-(2,4,5-trifluoro-3-hydroxyphenyl)isoxazole-4-carbonitrile] | – | 0.198 µM | 3.5 µM |
| CN(C(=O)c1nnc(-c2ccc(F)c(O)c2)o1)c1nnnn1-c1ccccc1 [Example 91, 5-(4-Fluoro-3-hydroxyphenyl)-N-methyl-N-(1-phenyl-1H-tetrazol-5-yl)-1,3,4-oxadiazole-2-carboxamide] | – | 0.166 µM | > 50 µM |
| N#Cc1c(C(=O)N2CC(C(F)(F)F)C2)noc1-c1cc(F)c(F)c(O)c1F [Example 28, 5-(2,4,5-Trifluoro-3-hydroxyphenyl)-3-(3-(trifluoromethyl)azetidine-1-carbonyl)isoxazole-4-carbonitrile] | – | 0.368 µM | 4.13 µM |

Now those with a lower IC50 [3], led by results:

| IC50 [1] | IC50 [2] | IC50 [3] | Structure (SMILES) |
| --- | --- | --- | --- |
| – | 0.112 µM | 0.96 µM | COc1ccc(N2CCN(C(=O)c3noc(-c4cc(F)c(F)c(O)c4F)n3)CC2)cc1 [Example 55, (4-(4-Methoxyphenyl)piperazin-1-yl)(5-(2,4,5-trifluoro-3-hydroxyphenyl)-1,2,4-oxadiazol-3-yl)methanone] |
| > 50 µM | 0.05 µM | 0.73 µM | COc1cccc(N2CCN(C(=O)c3noc(-c4cc(F)c(F)c(O)c4F)n3)CC2)c1 [Example 61, (4-(3-Methoxyphenyl)piperazin-1-yl)(5-(2,4,5-trifluoro-3-hydroxyphenyl)-1,2,4-oxadiazol-3-yl)methanone] |
| > 50 µM | 0.052 µM | 0.7 µM | O=C(c1noc(-c2cc(F)c(F)c(O)c2F)n1)N1CCC2(C1)OCc1ccccc12 (stereo not shown) [Example 102, (3H-Spiro[isobenzofuran-1,3′-pyrrolidin]-1′-yl)(5-(2,4,5-trifluoro-3-hydroxyphenyl)-1,2,4-oxadiazol-3-yl)methanone] |
| > 50 µM | 0.05 µM | 0.42 µM | O=C(c1cc(-c2ccc(F)c(O)c2)on1)N1CC[C@H](c2ccccc2)C1 [Example 101, (R)-(5-(4-Fluoro-3-hydroxyphenyl)isoxazol-3-yl)(3-phenylpyrrolidin-1-yl)methanone] |
| > 50 µM | 0.095 µM | 0.41 µM | O=C(c1noc(-c2cc(F)c(F)c(O)c2F)n1)N1CCN(c2ccccc2)CC1 [Example 81, (4-Phenylpiperazin-1-yl)(5-(2,4,5-trifluoro-3-hydroxyphenyl)-1,2,4-oxadiazol-3-yl)methanone] |
| – | 0.134 µM | 0.2 µM | O=C(c1noc(-c2cc(F)c(F)c(O)c2F)n1)N1Cc2ccc(F)cc2C1 [Example 65, (5-Fluoroisoindolin-2-yl)(5-(2,4,5-trifluoro-3-hydroxyphenyl)-1,2,4-oxadiazol-3-yl)methanone] |
